According to paper PMC3195939 (Journal of controlled release : official journal of the …, 2011):

Experiments:
HeLa cells [1] = assay: Uptake of endocytic markers after inhibitor treatment; format: cell-based, human
HeLa cells [2] = assay: Actin filament visualization with rhodamine-phalloidin in fixed cells; format: cell-based, human; details: 2 μM for 30 min at 37°C, rhodamine-phalloidin and DAPI
HeLa cells [3] = assay: Cellular uptake by live cell confocal fluorescence microscopy; format: cell-based, human
cell membranes = details: studies in fixed cells; cited from earlier work

Which “Effect on uptake of 10K-Dex” value (HeLa cells [1]; 50 μM EIPA) does the source give for `CCN(c1nc(N)c(C(=O)NC(=N)N)nc1Cl)C(C)C` [EIPA, 5-(N-ethyl-N-isopropyl)amiloride] here?
The value was “significantly inhibited”.

What about the “Effect on uptake of CTX-B” value (HeLa cells [1]; 50 μM EIPA) of the same compound?
The value was “significantly inhibit”.

And the “Effect on uptake of EGF” value (HeLa cells [1]; 50 μM EIPA, data not shown)?
Its value is “no or little effect”.

Which “Effect on actin filament network” value (HeLa cells [2]) does the source give for `C/C1=C/C(=O)O[C@@H]2C[C@@H](CC[C@H](C)/C=C\CC1)O[C@@](O)([C@@H]1CSC(=O)N1)C2` [Lat B, Latrunculin B] here?
The value was “total disruption of the actin filament network”.

What about the “Effect on uptake of 10K-Dex” value (HeLa cells [1]; 2 μM Lat B, data not shown) of the same compound?
The value was “did not significantly inhibit”.

For “AF488-MCoTI-I: MCoTI-I site-specifically labeled with AlexaFluor488 through the ε-amino of residue Lys4 in loop 1 (SGSDGGVCPKILQRCRRDSDCPGACICRGNGYCG; not fully specified; AlexaFluor488 on Lys4; UniProt P82408 1-34, looked up)”, which “Surface binding at 4°C” value (HeLa cells [3]; 25 μM, 4°C, live HeLa cells) is on record?
The value was “no significant surface binding”.

What about the “Internalization at 4°C” value (HeLa cells [3]; 25 μM, 1 h incubation at 4°C, completely reversible on 1 h at 37°C) of the same compound?
The value was “totally inhibited”.

And the “Internalization (intracellular distribution)” value (HeLa cells [3]; 25 μM, 1 h incubation at 37°C, serum-free DMEM, live HeLa cells, confocal fluorescence)?
The value was “clearly visible within perinuclear punctate spots inside the cells”.

What about the “Inhibition of cellular uptake by EIPA” value (HeLa cells [3]; 50 μM EIPA for 30 min at 37°C before 25 μM cyclotide, 1 h uptake) of the same compound?
The value was “≈ 80%”.

With kalata B1 as the compound, how does the “Affinity for proteins or lipids in cell membranes” value (cell membranes) read?
Its value is “shows membrane affinity”.
